According to PMC3700342 (Biochemical pharmacology, 2013):
Converted amounts (≈) assume the structure as drawn.

What was measured:
[1] = test system: C[C@H](N)C(=O)O; assay: purified protein, by the assay type
[2] = molecular target: T1, M. smegmatis alanine racemase (Mycolicibacterium smegmatis, UniProt P94967); assay: Alanine racemase assay; assay type: biochemical
T1 sequence (P94967 1-389): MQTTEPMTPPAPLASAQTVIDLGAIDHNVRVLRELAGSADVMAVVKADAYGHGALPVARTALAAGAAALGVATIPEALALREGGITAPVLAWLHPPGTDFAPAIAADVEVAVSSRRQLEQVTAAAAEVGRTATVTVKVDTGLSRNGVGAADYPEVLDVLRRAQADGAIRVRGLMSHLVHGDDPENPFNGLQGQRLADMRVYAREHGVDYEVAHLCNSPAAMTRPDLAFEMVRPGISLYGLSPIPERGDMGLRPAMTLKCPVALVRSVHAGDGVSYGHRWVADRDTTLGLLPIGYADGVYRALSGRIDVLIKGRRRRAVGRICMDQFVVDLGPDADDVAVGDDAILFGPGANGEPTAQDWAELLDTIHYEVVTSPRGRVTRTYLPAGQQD

[3] = test system: M. smegmatis; assay: Microtiter broth dilution MIC, M. smegmatis; assay type: cell-based
[4] = test system: M. smegmatis and M. tuberculosis growth; assay: MIC in the presence of 5 mM D-alanine in the growth medium; assay type: cell-based; settings: data not shown
[5] = test system: M. tuberculosis; assay: Microtiter broth dilution MIC, M. tuberculosis; assay type: cell-based; settings: Mycobacterium tuberculosis, read-out: Mtb MIC
[6] = test system: M. tuberculosis H37Rv; assay: Microtiter broth dilution MIC, M. tuberculosis H37Rv; assay type: cell-based; settings: Mycobacterium tuberculosis
[7] = molecular target: M. tuberculosis alanine racemase (Mycobacterium tuberculosis, UniProt P9WQA9); assay type: biochemical
[8] = substrate: C[C@H](N)C(=O)O; assay: Alanine racemase assay; assay type: biochemical, M. smegmatis; settings: other: L-alanine to D-alanine, recombinant enzyme

Sequence of M. tuberculosis alanine racemase (P9WQA9 whole entry): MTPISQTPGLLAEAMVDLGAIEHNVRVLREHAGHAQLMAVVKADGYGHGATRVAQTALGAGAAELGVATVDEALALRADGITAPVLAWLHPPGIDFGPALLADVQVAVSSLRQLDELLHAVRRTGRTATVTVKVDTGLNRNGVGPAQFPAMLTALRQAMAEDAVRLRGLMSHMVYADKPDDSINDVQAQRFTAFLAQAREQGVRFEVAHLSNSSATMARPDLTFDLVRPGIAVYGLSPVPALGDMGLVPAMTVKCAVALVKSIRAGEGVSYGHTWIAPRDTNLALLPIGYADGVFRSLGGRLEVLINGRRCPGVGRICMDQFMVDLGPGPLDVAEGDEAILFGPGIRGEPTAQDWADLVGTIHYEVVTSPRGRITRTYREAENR

## M. tuberculosis alanine racemase (Mycobacterium tuberculosis H37Rv)
[1]
  Km: 4 mM
  Vmax: 0.04 mM/min

## N[C@@H]1CON=C1O [CS, cycloserine]
[2]
  IC50: > 100 µM
[3]; 2 days, Mueller Hinton broth
  MSM MIC: 25 µg/mL
[3]; Mycolicibacterium smegmatis, 48 h, read-out: MSM MIC
  MIC: 25 µg/mL (≈ 245 µM)
[4]
  increase in MIC: 3 fold
[5]
  MIC: 6.25 µg/mL (≈ 61.2 µM)
[6]
  MIC: 6.25 µg/mL (≈ 61.2 µM)

## C[C@H](N)C(=O)O [L-alanine]
[2]; L-alanine to D-alanine, recombinant enzyme
  Kcat: 4300
[7]
  Kcat: 200

B1: M. smegmatis alanine racemase (Mycolicibacterium smegmatis) (protein)
chain: MQTTEPMTPPAPLASAQTVIDLGAIDHNVRVLRELAGSADVMAVVKADAYGHGALPVARTALAAGAAALGVATIPEALALREGGITAPVLAWLHPPGTDFAPAIAADVEVAVSSRRQLEQVTAAAAEVGRTATVTVKVDTGLSRNGVGAADYPEVLDVLRRAQADGAIRVRGLMSHLVHGDDPENPFNGLQGQRLADMRVYAREHGVDYEVAHLCNSPAAMTRPDLAFEMVRPGISLYGLSPIPERGDMGLRPAMTLKCPVALVRSVHAGDGVSYGHRWVADRDTTLGLLPIGYADGVYRALSGRIDVLIKGRRRRAVGRICMDQFVVDLGPDADDVAVGDDAILFGPGANGEPTAQDWAELLDTIHYEVVTSPRGRVTRTYLPAGQQD
[8]
  Km: 8.5 mM
  Vmax: 0.3 mM/min
